Results: patent US20250195599A1, “ANTI-DIABETIC STEROIDAL LACTONES OF WITHANIA COAGULANS FOR TREATMENT OF TYPE 2 DIABETES” (Khalifa University of Science and Technology, priority 2022, published 2025)

Experiments:
[1] = tested on: Diseased Human Skeletal Muscle Myoblasts (D-HSMM) diabetes type II; assay type: cell-based
Procedure: Measurement of cellular viability: Cell proliferation was measured by using MTT 3-(4,5-dimethylthiazol-2-yl)-2,5-diphenyltetrazolium bromide (MTT) (Cat no: M2128, Sigma Aldrich, USA). […] After 48 h of incubation, plates were removed from the CO2incubator and washed with 200 μl PBS. Thereafter, 100 μl of MTT solution (0.5 mg/ml in SkGM-2 medium) was added to each well. The contents were placed on a shaker for 5 min and were incubated for 4 hours in a CO2 incubator to allow the MTT to be metabolized. After incubation, the supernatant was removed, and the plate was washed with 300 μl PBS. The plates were inverted and strongly tapped on a paper towel to remove the medium completely. […] For the blank control, wells were set without cells but received all the reagents.

myogenin = test: Myogenin immunofluorescence staining in D-HSMM; assay type: cell-based, human; details: 48 h, optimum concentration, vs. D-HSMM control (untreated cells), FIG. 3A
Procedure: The supernatant was removed, cells were washed with warm PBS (37° C.), fixed with 100 μl PBS containing 4% paraformaldehyde at room temperature for 10 mins. Cells were permeabilized with 100 μl of 0.25% Triton X-100 on PBS for 10 mins at 25° C. The cells were then blocked with 100 μl of 10% normal goat serum (NGS), incubated with 50 μl of primary anti-myogenin antibody (Cat no: MAB3876, Merck Millipore, USA) diluted 1:500 in block solution overnight at 4° C. Cells were washed in PBS (200 μl) three times, incubated with 50 μl Goat anti-Mouse IgG (H+L) secondary antibody (Cross adsorbed, Alexa Fluor 594, Cat no: R37121, Thermo Fisher Scientific, USA) at room temperature for 30 min. Nuclei were counterstained with 1 μg/ml Hoechst 33342 solution (Cat no: 62249, Thermo Fisher Scientific, USA) in PBS (100 μl/well). For each treatment, cells were examined under EVOS F1 Microscope (Cat no: AMF4300, Life Technologies, USA) and photographed. Approximately 10-12 digital photographs were taken of each treatment for subsequent offline analysis. The total number of immune-positive and immuno-negative cells were counted using Image J (NIH, USA) software. […] Data were presented as a percentage of control (untreated cells).

MAFbx/atrogin-1 = test: Atrogin-1/Fbx32 immunofluorescence staining in D-HSMM; assay type: cell-based, human; details: 48 h, optimum concentration, vs. control (non-treated cells), FIG. 4A
Procedure: The supernatant was removed, cells were washed with warm PBS (37° C.), fixed with phosphate-buffered saline (PBS) containing 4% paraformaldehyde at room temperature for 10 mins. Cells were permeabilized with 0.25% Triton X-100 on PBS for 10 mins at 25° C. The cells were then blocked with 100 μl of 10% NGS in PBS at room temperature for 2 hours. The cells were then incubated with 50 μl primary Anti-Fbx32 antibody (Cat no: NBP2-76836, Novus Biological, USA) diluted 1:100 in block solution overnight at 4° C. Cells were washed in PBS three times (200 μl), incubated with 50 μl Goat anti-Rabbit IgG (H+L) (Cross adsorbed, Alexa Fluor 488, Cat no: R37116, Thermo Fisher Scientific, USA) secondary antibody at room temperature for 30 min. Nuclei were counterstained with 1 μg/ml Hoechst 33342 solution (Cat no: 62249, Thermo Fisher Scientific, USA) in PBS (100 μl/well). For each treatment, cells were examined under EVOS F1 Microscope (Cat no: AMF4300, Life Technologies, USA) and photographed. Approximately 10-12 digital photographs were taken of each treatment for subsequent offline analysis. The total number of immune-positive and immuno-negative cells were counted using Image J (NIH, USA) software. […] Data were presented as a percentage of control (untreated cells).

MyoD = test: MyoD1 immunofluorescence staining in D-HSMM; assay type: cell-based, human; details: for MyoD positive cells: optimum concentration, vs. D-HSMM control (non-treated cells)
Procedure: The supernatant was removed, cells were washed with warm PBS (37° C.), fixed, and permeabilized with 100 μl phosphate-buffered saline (PBS) containing 4% paraformaldehyde and 0.1% Triton X-100 at room temperature for 10 mins. Next, cells were blocked with 1% BSA (100 μl) in PBS at room temperature for 1 hour. The cells were then incubated with 50 μl of primary anti-MyoD1 antibody (Cat no: ab16148, Abcam, USA), diluted 1:100 in a block solution, overnight at 4° C. Cells were washed in PBS three times, incubated with 50 μl Goat anti-Mouse IgG (H+L) secondary antibody (Cross adsorbed, Alexa Fluor 594, Cat no: R37121, Thermo Fisher Scientific, USA) at room temperature for 30 min. Nuclei were counterstained with 1 μg/ml Hoechst 33342 solution (Cat no: 62249, Thermo Fisher Scientific, USA) in PBS (100 μl/well). For each treatment, cells were examined under EVOS F1 Microscope (Cat no: AMF4300, Life Technologies, USA) and photographed. Approximately 10-12 digital photographs were taken of each treatment for subsequent offline analysis. The total number of immune-positive and immuno-negative cells were counted using Image J (NIH, USA) software. […] Data were presented as a percentage of control (untreated cells).

GLUT1 = test: Cell-based GLUT1 ELISA in D-HSMM myotubes; parameters: species or system human; details: treated 24 h on day 8, FIG. 6A
Procedure: After 24 hours, GLUT1 was measured by using CytoGlow™ cell-based GLUT 1 ELISA kit (Cat no: MBS95002558, MyBioSource, USA), according to the manufacturer's protocol. Briefly, cells were fixed with phosphate-buffered saline (PBS) containing 4% paraformaldehyde at room temperature for 20 mins. Next, cells were quenched for 20 mins at room temperature. Cells were washed in PBS three times, blocked at room temperature for 1 hour. Cells were washed in PBS three times, incubated with primary GLUTI antibody overnight at 4° C. Cells were washed in PBS three times (200 μl), incubated with HRP-conjugated secondary antibody at room temperature for 1.5 hours. Cells were washed in PBS three times and incubated with a ready-to-use substrate for 30 minutes at room temperature in the dark with gentle shaking on the shaker. The reaction was stopped, and OD was measured at 450 nm immediately using an Emax Plus microplate reader (Molecular devices, CA 94089, USA).

GLUT4 = test: Total GLUT4 immunofluorescence in D-HSMM myotubes; assay type: cell-based, human; details: FIG. 6B; for expression of GLUT-4: treated 24 h on day 8, 100 nM insulin challenge, vs. D-HSMM control (untreated cell)
Procedure: Measurement of Total GLUT4: Approximately 2×10^3 cells were seeded in a 96 well clear bottom black poly D lysine (5 μg/cm^2) coated plate and allow to grow with a media change after every 48 h. […] The supernatant was removed and challenged for 5 mins with 100 nM insulin. Next, cells were washed with warm PBS (37° C.), fixed with phosphate-buffered saline (PBS) containing 4% paraformaldehyde at room temperature for 10 mins. Cells were permeabilized with 0.5% Triton X-100 on PBS for 10 mins at 25° C. The cells were then blocked with 100 μl of 10% NGS in PBS at room temperature for 2 hours. The cells were then incubated with 50 μl GLUT4 antibody (Cat no: NBP1-49533, Novus Biological, USA) diluted 1:100 in block solution overnight at 4° C. Cells were washed in PBS three times (200 μl), incubated with 50 μl Goat anti-Rabbit IgG (H+L) (Cross adsorbed, Alexa Fluor 488, Cat no: R37116, Thermo Fisher Scientific, USA) secondary antibody at room temperature for 30 min. Total fluorescence was measured m at […] (excitation/emission) by Tecan multimode plate reader (M200, Tecan, Switzerland). Cells without primary antibody were used for blank reduction. The relative GLUT 4 (%) related to control wells containing cells with DMEM:F12 medium was calculated by (RFU) test/(RFU) control×100. Where (RFU) test is the fluorescence of the test sample and (RFU) control is the fluorescence of the control sample.

D-HSMM myotubes = test: Insulin-stimulated 2-NBDG glucose uptake in D-HSMM myotubes; assay type: cell-based, human; details: FIG. 7
Procedure: Insulin-stimulated 2-NBDG uptake: The ability of the test compounds on insulin-stimulated glucose uptake was measured using the Glucose Uptake Cell-Based Assay Kit (Cat no: 600470, Cayman, Michigan, USA) according to the manufacturer's instructions. Briefly, the cells were seeded at a density of 2×10^3 cells/well in a 96 well black, clear-bottom poly D lysine coated plate and allowed to grow with a media change after every 48 hours. […] Subsequently, cells were washed with 300 μl PBS three times and incubated with PBS for 5 mins at 37° C., in a CO2 incubator. Cells were challenged for 20 min with 50 μl of 100 nM insulin and 50 μl of 100 μg/ml fluorescent glucose analog 2-deoxy-2-[(7-nitro-2,1,3-benzoxadiazol-4-yl) amino]-D-glucose (2-NBDG) in Krebs/Ringer buffer (KRB) (118.5 mM NaCl, 25 mM NaHCO3, 4.74 mM KCl, 1.19 mM MgSO4, 2.54 mM CaCl2, 10 mM HEPES, 1.19 mM KH2PO4, 0.1% BSA) (pH 7.4). At the end of the incubation, the plates were centrifuged for 3 mins at 400×g at room temperature, and the supernatant was aspirated. Cells were washed with 200 μl/well cell-based assay buffer and centrifuged for 3 mins at 400×g at room temperature. […] The fluorescence reading of each well was immediately measured (excitation/emission=485 nm/535 nm) by using a Tecan multimode plate reader (Cat no: M200, Tecan, Switzerland). […]

urease = details: stated as background knowledge; cited from earlier work
bovine embryo = details: stated as background knowledge; cited from earlier work
[2] = tested on: Diseased Human Skeletal Muscle Myoblasts (D-HSMM) diabetes type II; test: LDH release cytotoxicity assay; details: D-HSMM myoblasts treated 48 h; W. Coagulans and Coagulansin-A 1×10^−15 g/ml; vs. control (non-treated cells); FIG. 2A
Procedure: Cell line: The Clonetics® Diseased Human Skeletal Muscle Myoblasts (D-HSMM) diabetes type II, (Cat no: CC-2901) sourced from a donor, were purchased from Lonza (Lonza Bioscience, USA).
Cells were cultured in the growth medium, Skeletal Muscle Growth Media-2 (SkGM-2; CC-3244) containing basal medium, Human epidermal growth factor (hEGF), Dexamethasone, L-glutamine, Fetal Bovine Serum (FBS), and Gentamicin/Amphotericin B (GA-1000). Cells were seeded at 6250 cells/cm^2 in T175 flasks and maintained at 37° C. in a humidified incubator (Thermo Scientific, USA) containing 5% carbon dioxide (CO2). After 24 hours, when cells adhered to the bottom of the flask, media was changed every 24-48 hours. […]
The cytotoxicity detection kit (Cat no: 11644793001, Roche, USA) was used to measure lactate dehydrogenase (LDH) release according to the manufacturer's instructions. Briefly, released LDH in culture supernatants was measured with a 30-mins coupled enzymatic assay that results in the reduction of tetrazolium salt, Iodotetrazolium chloride (INT) into a formazan (red). […] Absorbance at 490 nm was measured with an Emax Plus microplate reader (CA 94089, Molecular devices, USA). The reader was calibrated to zero absorbance using a culture medium without cells. The untreated cells served as the control, and results were calculated as the percentage of viability in relation to the control. […]

Compound: CC1=C(CO)C(=O)O[C@@H]([C@](C)(O)[C@]2(O)CC[C@@]3(O)C4CC=C5CC=CC(=O)[C@]5(C)C4CC[C@]23C)C1 (stereo partly drawn) [Coagulansin-A, (14α, 17S,20S,22R)-14, 17,20,27-tetrahydroxy-1-oxowitha-2,5,24-trienolide)]
- MTT metabolic rate, dose optimization [1]: did not affect the metabolic rate
- MTT viability [1]: did not affect the viability
- expression of myogenin (myogenin): significantly increased expression
- expression of atrogin1 (MAFbx/atrogin-1): significantly suppressed expression
- MyoD positive cells compared to metformin and pioglitazone (MyoD; D-HSMM myoblasts, 48 h, vs. metformin and pioglitazone treated cells, FIG. 5A): Significantly increased MyoD positive cells
- MyoD positive cells (MyoD; D-HSMM, 48 h, FIG. 5A): enhanced expression
- MyoD positive cells, dose optimization (MyoD; D-HSMM, concentration 10^−15 g/ml (of 10^−13, 10^−15, 10^−17 g/ml tested), vs. diabetic control, FIG. 9): enhanced expression
- expression of GLUT1 (GLUT1): remained unaffected
- expression of GLUT-4 (GLUT4): upregulated
- expression of GLUT-4 compared to metformin (GLUT4; vs. metformin (as printed in text)): significant increase
- insulin-stimulated glucose uptake (2-NBDG) (D-HSMM myotubes; treated 24 h, vs. control (untreated cells)): significantly enhanced glucose uptake
- insulin-stimulated glucose uptake compared to positive controls (D-HSMM myotubes; vs. insulin, metformin, and pioglitazone): increased glucose uptake
- antiurease activity (urease): antiurease activity
- effects on development of bovine embryo (bovine embryo): beneficial effects on development of bovine embryo

Compound: COc1ccc(Cl)cc1C(=O)NCCc1ccc(S(=O)(=O)NC(=O)NC2CCCCC2)cc1 [Glibenclamide, reference compound]
- MyoD positive cells (MyoD; D-HSMM, 48 h, FIG. 5A): enhanced expression

Compound: CN(C)C(=N)N=C(N)N [Metformin]
- expression of myogenin (myogenin): remained unaffected
- expression of atrogin1 (MAFbx/atrogin-1): significantly suppressed expression
- MyoD positive cells (MyoD; D-HSMM, 48 h, FIG. 5A): did not show any difference

Compound: Insulin
- expression of myogenin (myogenin): significantly increased expression
- expression of atrogin1 (MAFbx/atrogin-1): significantly suppressed expression
- MyoD positive cells (MyoD; D-HSMM, 48 h, FIG. 5A): enhanced expression
- expression of GLUT-4 (GLUT4): upregulated
- LDH release [2]: significant decrease
